Reference: patent publication US20080206198A1, “Compounds and methods for pharmico-gene therapy of epithelial sodium channel associated disorders” (priority 2003, published 2008)
Peptide text beside a SMILES is read from it. * marks the point of attachment. Cbz = O=C(OCc1ccccc1)*

Legend:
liver = assay: rAAV transduction in liver with Z-LLL; assay type: in vivo, mouse; conditions: 1 month post-infection
Experimental: Recombinant AV.LacZ (5×10^10 particles) was also administered to mouse liver either as virus alone in PBS, virus in combination with 40 μM Z-LLL in PBS, or virus in combination with 20 μM LLnL in PBS. Virus was directly instilled into portal vein of the C57B6 mice. AAV-mediated LacZ transgene expression was evaluated by histology staining at 2 and 4 weeks post infection in frozen tissue sections.

γ-ENaC gene promoter = assay: Methylation-sensitive PCR of the γ-ENaC promoter CpG island in A549 cells; assay type: cell-based, human; conditions: A549 genomic DNA
Experimental: Analysis of γ-ENaC promoter CpG Methylation. The methylation status of a CpG island beginning at approximately −1.8 kb of the γ-ENaC promoter was analyzed using a previously described PCR method (Malik et al., 2001). Briefly, genomic DNA was isolated from A549 cells that had been treated with and without doxorubicin, and then digested overnight with Mbol, MboI/MspI, or Mbol/HpaII. PCR reactions were then performed using primers that flank the MspI/HpaII sites in this region. Primers: forward 5′-[…]-3′ (SEQ ID NO: 13); reverse 5′-[…]-3′ (SEQ ID NO: 14).

[1] = tested on: polarized human airway epithelial cells; assay type: cell-based
Experimental: Primary culture of human bronchial epithelia and reagents utilized. Primary human airway epithelial cells were collected by enzymatic digestion of bronchial samples from lung transplants, as previously described (Kondo et al., 1991; Zabner et al., 1996). Isolated primary airway cells were seeded at a density of 5×10^5 cells/cm^2 onto collagen-coated Millicell-HA culture inserts (Millipore Corp., Bedford, Mass.). Primary cultures were grown at the air-liquid interface for more than 2 weeks, by which time differentiation into a mucociliary epithelium occurs. The culture medium, used to feed only the basolateral side of the cells, contained 49% DMEM, 49% Ham's F12 and 2% Ultraser G (BioSepra, Cedex, France). Dimethyl Sulphoxide (DMSO), camptothecin (Camp), etoposide (Etop), aphidicolin (Aphi), hydroxyurea (HU) and genistein (Geni) were purchased from Sigma (St. Louis, Mo.). Tripeptidyl aldehyde proteasome inhibitors N-Acetyl-L-Leucyl-L-Leucyl-Norleucine (LLnL) and benzyloxycarbonyl-L-leucyl-L-leucyl-L-leucinal (Z-LLL) were purchased from Calbiochem-Novabiochem Corporation (La Jolla, Calif.). Ubiquitin ligase (E3) inhibitors were obtained from Bachem Bioscience Inc. (King of Prussia, Pa.). Anti-AAV capsid monoclonal antibody (Anti-VP1, 2 and 3) was purchased from American Research Products (Belmont, Mass.) and anti-ubiquitin antibody was purchased from Santa Cruz Biotechnology Inc. (Santa Cruz, Calif.).
Transduction of polarized airway epithelial cells and primary human fibroblasts. rAAV infection of fully differentiated bronchial cells was performed as described in Duan et al. (1998). For infections from the apical surface of the airway cells, 5 μl rAAV was mixed with 50 μl of culture media and applied directly onto the apical compartment of Millicell inserts (MOI=10,000 particles/cell). During apical infection, the basolateral side of the Millicell was continuously bathed in culture media. Gene transfer to the basal side was performed by inverting Millicell inserts and applying viral vector to the bottom of the supporting filter membrane in a 50 μl volume for 2 hours. Subsequently, Millicell inserts were returned to the upright position, in the continued presence of the original viral inoculum plus an additional 450 μl of media. For both apical and basolateral infections, rAAV containing media was removed after 24 hours and replaced with either fresh culture media (for the basal side) or exposed to air (for the apical side). To test the effect of different agents on the efficiency of AAV transduction in polarized airway cells, 1 μl of each solution was mixed with AAV prior to infection of airway epithelia. Agents were usually presented during the 24 hours AAV infection period unless indicated otherwise. Most of the agents were dissolved in DMSO except for hydroxyurea (dissolved in phosphate buffered saline), H-Leu-Ala-OH (dissolved in 0.9% glacial acetic acid) and H-His-Ala-OH (dissolved in 50% methanol). The working concentrations of the agents were as follows: 0.1 μM camptothecin, 10 μM etoposide, 5 μg/ml aphidicolin, 40 mM hydroxyurea, 50 μM genistein, 40 μM LLnL and 4 μM Z-LLL. When the ubiquitin ligase (E3) inhibitors (H-Leu-Ala-OH and H-His-Ala-OH) were used, airway cells were pretreated with a combination of both inhibitors at a final concentration of 2 mM for 60 minutes prior to infection, followed by the continued presence of inhibitor (0.2 mM) during the entire 24 hours infection period from the basolateral surface. Studies involving EGTA treatment were performed by transiently treating the apical membrane of polarized airway epithelia with 3 mM EGTA in water for 10 minutes (Duan et al., 1998). Following hypotonic EGTA treatment, cultures were washed twice with culture medium and infected with rAAV in the presence or absence of 40 μM LLnL. Human primary fibroblast cells (P4) were maintained in 10% fetal bovine serum (FBS), 1% penicillin and streptomycin, and 89% DMEM. […]

[2] = tested on: polarized bronchial epithelia cells; assay: S^35-labeled rAAV binding/entry and in situ localization in polarized bronchial epithelia; assay type: cell-based, human
Experimental: Viral binding/entry assays and in situ localization of viral particles. To assess the binding of rAAV to polarized bronchial epithelia cells, S^35-labeled AV.GFP3ori was applied to either the apical or basal surface (MOI=50,000 particles/cell), followed by incubation at 4° C. for 60 minutes. Combined binding/entry of rAAV into differentiated airway epithelia was measured under the same conditions, except that the cultures were incubated at 37° C. for an additional 2-24 hours before they were harvested. These combined viral binding/entry assays were performed under identical infection conditions to those used for functional studies of rAAV transduction with transgene expression as an endpoint. After washing three times in PBS, cells were lysed in situ by the addition of 5 ml of liquid scintillation cocktail at room temperature for 5 minutes, and the radioactivity was quantitated in a scintillation counter.
To analyze the subcellular localization of the rAAV particles within polarized human bronchial epithelial cells, infection was performed by applying S^35 labeled virus (MOI=50,000 particles/cell) to either the mucosal or serosal surface. At 2 hours post-infection, transwells were washed with medium three times and fixed in 4% paraformaldehyde overnight prior to cryoprotection and embedding for frozen sectioning. 10 μm frozen sections were overlaid with photoemulsion and developed for 5 weeks according to a previously published protocol (Duan et al., 1998).

[3] = tested on: polarized human airway epithelial cultures; assay: AV2.RSVluc and AV2.RSVlucCap5 transduction of polarized human airway epithelial cultures; assay type: cell-based; conditions: virus applied to the apical surface
Description: To better understand serotype-specific differences in airway transduction, the effect of proteasome inhibitors on rAAV-2 and rAAV-5 transduction in polarized human airway epithelial cultures and mouse lung was examined (FIGS. 2 and 6).

CC(C)C[C@@H](C=O)NC(=O)[C@H](CC(C)C)NC(=O)[C@H](CC(C)C)NC(=O)OCc1ccccc1 [Z-LLL, N-carbobenzoxyl-L-leucinyl-L-leucinyl-L-leucinal] (Cbz-Leu-Leu-Leu-aldehyde)
increase in rAAV transduction in the liver (liver): 7 fold

COc1cccc2c1C(=O)c1c(O)c3c(c(O)c1C2=O)C[C@@](O)(C(=O)CO)C[C@@H]3O[C@H]1C[C@H](N)[C@H](O)[C@H](C)O1 [doxorubicin]
CpG methylation of the γ-ENaC promoter (protection from HpaII digestion) (γ-ENaC gene promoter): significant Dox-dependent protection from HpaII digestion

N-acetyl-L-leucinyl-L-leucinal-L-norleucinal [LLnL]
augmentation in transgene expression ([1]; applied to the serosal surface along with rAAV, 2 days post infection, 40 μM LLnL): greater than 200 fold | time of peak augmentation in AAV transduction ([1]; co-administration with rAAV to the mucosal surface): 22 days post-infection | toxicity of continual administration ([1]; continual administration after basolateral infection): toxic to cells | time of transient peak in gene expression ([1]; rAAV infection from the serosal surface): 72 hours post-infection | rAAV binding ([2]; 4° C.): no significant effect | uptake of S^35 labeled rAAV ([2]; 2 hour infection period at 37° C.): not altered | intracellular distribution of radiolabeled rAAV particles ([2]; 2 hours post-infection, photoemulsion overlay): significant shift to nuclear associated grains | intracellular radioactivity ([2]; 24 hours post-infection): very significant decrease | increase in AV2.RSVlucCap5 transduction [3]: 12 fold
